Patent US10385047B2, “Histone demethylase inhibitors” (CELGENE QUANTICEL RESEARCH, INC., priority 2014, dated 2019)
pIC50: −log10 of the molar value.

Tests used:
[1] = biological target: T1, JMJD2C (Homo sapiens, UniProt Q9H3R0); assay: In vitro enzyme inhibition assay for JMJD2C activity (TR-FRET); type: biochemical
T1 construct: purchased BPS Bioscience 50105; host or cells: baculovirus expression system (insect cells)
T1 sequence (Q9H3R0 2-372): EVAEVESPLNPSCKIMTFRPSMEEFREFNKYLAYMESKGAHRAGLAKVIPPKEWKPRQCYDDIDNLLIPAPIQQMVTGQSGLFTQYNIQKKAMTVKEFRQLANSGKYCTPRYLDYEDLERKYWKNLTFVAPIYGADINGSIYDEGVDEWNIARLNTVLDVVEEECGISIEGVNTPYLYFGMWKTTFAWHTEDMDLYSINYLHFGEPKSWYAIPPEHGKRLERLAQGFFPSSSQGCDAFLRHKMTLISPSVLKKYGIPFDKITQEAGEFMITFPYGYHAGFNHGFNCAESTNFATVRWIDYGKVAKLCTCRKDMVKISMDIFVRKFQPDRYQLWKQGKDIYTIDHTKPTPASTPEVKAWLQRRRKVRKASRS
Experimental: This assay determines the ability of a test compound to inhibit JMJD2C demethylase activity. Baculovirus expressed JMJD2C (GenBank Accession #BC143571, AA 2-372) was purchased from BPS Bioscience (Cat#50105).
The ability of test compounds to inhibit the activity of JMJD2C was determined in 384-well plate format under the following reaction conditions: 0.3 nM JMJD2C, 300 nM H3K9me3-biotin labeled peptide (Anaspec cat #64360), 2 μM alpha-ketoglutaric acid in assay buffer of 50 mM HEPES, pH7.3, 0.005% Brij35, 0.5 mM TCEP, 0.2 mg/ml BSA, 50 μM sodium L-ascorbate, and 2 μM ammonium iron(II) sulfate. Reaction product was determined quantitatively by TR-FRET after the addition of detection reagent Phycolink Streptavidin-allophycocyanin (Prozyme) and Europium-anti-di-methylated histone H3 lysine 9 (H3K9me2) antibody (PerkinElmer) in the presence of 5 mM EDTA in LANCE detection buffer (PerkinElmer) at a final concentration of 50 nM and 1 nM, respectively.
The assay reaction was initiated by the following: 2 μl of the mixture of 900 nM H3K9me3-biotin labeled peptide and 6 μM alpha-ketoglutaric acid with 2 μl of 11-point serial diluted inhibitor in 3% DMSO were added to each well of the plate, followed by the addition of 2 μl of 0.9 nM JMJD2C to initiate the reaction. The reaction mixture was incubated at room temperature for 30 minutes, and terminated by the addition of 6 μl of 5 mM EDTA in LANCE detection buffer containing 100 nM Phycolink Streptavidin-allophycocyanin and 2 nM Europium-anti-H3K9me2 antibody. Plates were read by EnVisionMultilabel Reader in TR-FRET mode (excitation at 320 nm, emission at 615 nm and 665 nm) after 1 hour incubation at room temperature. A ratio was calculated (665/615) for each well and fitted to determine inhibition constant (IC50).

[2] = biological target: T2, JMJD3 (Homo sapiens, UniProt O15054); assay: In vitro enzyme inhibition assay for JMJD3 activity (TR-FRET); type: biochemical; conditions: enzymatic assay conditions described herein
T2 construct: purchased BPS Bioscience 50115; host or cells: baculovirus expression system (insect cells)
Experimental: This assay determines the ability of a test compound to inhibit JMJD3 demethylase activity. Baculovirus expressed JMJD3 (GenBank Accession #NM-001080424, AA1043-end) was purchased from BPS Bioscience (Cat#50115).
The enzymatic assay of JMJD3 activity is based upon Time Resolved-Fluorescence Resonance Energy Transfer (TR-FRET) detection. […] Reaction product was determined quantitatively by TR-FRET after the addition of detection reagent Phycolink Streptavidin-allophycocyanin (Prozyme) and Europium-anti-di-methylated histone H3 lysine 27 (H3K27me2) antibody (PerkinElmer) in the presence of 5 mM EDTA in LANCE detection buffer (PerkinElmer) at a final concentration of 50 nM and 1 nM, respectively.
The reaction mixture was incubated at room temperature for 30 minutes, and terminated by the addition of 6 μL of 5 mM EDTA in LANCE detection buffer containing 100 nM Phycolink Streptavidin-allophycocyanin and 2 nM Europium-anti-H3K27me2 antibody. Plates were read by EnVisionMultilabel Reader in TR-FRET mode (excitation at 320 nm, emission at 615 nm and 665 nm) after 1 hour incubation at room temperature. A ratio from the readout of 665/615 was calculated for each well and fitted to determine inhibition constant (IC50).

[3] = 0.3 nM JMJD2C, H3K9me3-biotin peptide, 2 μM alpha-ketoglutaric acid
[4] = enzymatic assay conditions described herein

T2 sequence (O15054 1043-1682 isoform O15054-1): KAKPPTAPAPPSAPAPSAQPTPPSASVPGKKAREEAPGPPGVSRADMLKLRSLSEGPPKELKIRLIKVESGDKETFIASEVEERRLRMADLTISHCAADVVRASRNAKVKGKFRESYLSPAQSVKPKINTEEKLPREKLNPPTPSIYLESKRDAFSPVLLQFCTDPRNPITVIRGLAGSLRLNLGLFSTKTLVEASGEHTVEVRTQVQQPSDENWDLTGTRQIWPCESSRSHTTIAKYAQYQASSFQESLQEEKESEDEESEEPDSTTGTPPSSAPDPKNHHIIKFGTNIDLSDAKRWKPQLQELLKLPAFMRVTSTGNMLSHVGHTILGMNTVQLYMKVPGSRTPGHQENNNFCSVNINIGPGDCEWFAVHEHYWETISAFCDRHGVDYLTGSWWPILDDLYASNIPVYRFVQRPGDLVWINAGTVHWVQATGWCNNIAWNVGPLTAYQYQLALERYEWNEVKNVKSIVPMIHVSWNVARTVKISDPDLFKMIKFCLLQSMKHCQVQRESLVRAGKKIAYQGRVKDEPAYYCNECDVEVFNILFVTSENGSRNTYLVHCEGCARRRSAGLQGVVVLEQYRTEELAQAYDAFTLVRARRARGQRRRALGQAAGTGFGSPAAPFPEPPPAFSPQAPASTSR

| pIC50 [1, 3] | pIC50 [1, 4] | pIC50 [2] | SMILES |
| --- | --- | --- | --- |
| 6.00 to 7.00 |  |  | C[C@@H](O)c1ccc(N(C)c2ccc3c(c2)CCC[C@H]3CNc2cnccc2C(=O)O)cc1 (single isomer, unassigned) [Example 168] |
| 6.00 to 7.00 |  |  | C[C@H](O)c1ccc(N(C)c2ccc3c(c2)CCC[C@H]3CNc2cnccc2C(=O)O)cc1 (single isomer, unassigned) [Example 169] |

The remaining lines, values behind:

| SMILES | pIC50 [1, 3] | pIC50 [1, 4] | pIC50 [2] |
| --- | --- | --- | --- |
| O=C(O)c1ccncc1NC[C@@H]1CCOc2cc(C3CCCCC3)ccc21 [Example 35, 3-({[(4R)-7-cyclohexyl-3,4-dihydro-2H-1-benzopyran-4-yl]methyl}amino)pyridine-4-carboxylic Acid] | 6.00 to 7.00 |  |  |
| O=C(O)c1ccncc1NC[C@H]1CCOc2cc(-c3ccccc3)ccc21 [Example 83 of U.S. Pat. No. 8,952,151, 3-({[(4S)-7-phenyl-3,4-dihydro-2H-1-benzopyran-4-yl]methyl}amino)pyridine-4-carboxylic acid] |  | 6.02 | 7.72 |
| O=C(O)c1ccncc1NC[C@@H]1CCOc2cc(-c3ccccc3)ccc21 [Example 84 of U.S. Pat. No. 8,952,151, 3-({[(4R)-7-phenyl-3,4-dihydro-2H-1-benzopyran-4-yl]methyl}amino)pyridine-4-carboxylic acid] |  | 6.82 | 5.67 |
